The source of these data is patent US20050113292A1 (priority 2003, published 2005).

Like-named read-outs stand apart in the source and are kept apart here.

The test system of test [1] is T-tropic (R8) HIV-1. Conditions: T-tropic (R8).
Test [2] concerns HIV-1 mediated cell-cell fusion (R8 virus). Conditions: mediated cell-cell fusion (R8 virus).
Test [3] has as its system M-tropic (BAL) HIV-1. The conditions noted are these: M-tropic (BAL).
For test [4], the system named is R9 HIV-1 virus. It is filed as cell-based.
The target of test [5] is gp41 of T-tropic HIV-1 R8 virus (HIV-1 (R8)). The test can be described thus: cell-based or functional assay.

For the compound `CC[C@H](C)[C@H](NC(=O)CNC(=O)[C@H](Cc1c[nH]c2ccccc12)NC(=O)[C@@H](NC(=O)[C@@H](NC(=O)[C@H](CC(C)C)NC(=O)[C@H](CCC(N)=O)NC(=O)[C@H](CC(C)C)NC(=O)[C@H](CC(C)C)NC(=O)[C@H](Cc1c[nH]cn1)NC(=O)[C@H](CCC(N)=O)NC(=O)[C@H](CCC(N)=O)NC(=O)[C@H](C)NC(=O)[C@H](CCC(=O)O)NC(=O)[C@@H](NC(=O)[C@H](C)NC(=O)[C@H](CCCNC(=N)N)NC(=O)[C@H](CC(C)C)NC(=O)[C@H](CC(C)C)NC(=O)[C@H](CC(N)=O)NC(=O)[C@H](CC(N)=O)NC(=O)[C@H](CCC(N)=O)NC(=O)[C@H](CCC(N)=O)NC(=O)[C@H](CCC(N)=O)NC(=O)[C@@H](NC(=O)[C@@H](NC(=O)CNC(=O)[C@H](CO)NC(=O)[C@@H]1CSC(C(=O)NCCCC[C@H](NC(=O)CCNC(=O)C2N[C@H](C(=O)N[C@@H](CO)C(=O)NCC(=O)N[C@H](C(=O)N[C@H](C(=O)N[C@@H](CCC(N)=O)C(=O)N[C@@H](CCC(N)=O)C(=O)N[C@@H](CCC(N)=O)C(=O)N[C@@H](CC(N)=O)C(=O)N[C@@H](CC(N)=O)C(=O)N[C@@H](CC(C)C)C(=O)N[C@@H](CC(C)C)C(=O)N[C@@H](CCCNC(=N)N)C(=O)N[C@@H](C)C(=O)N[C@H](C(=O)N[C@@H](CCC(=O)O)C(=O)N[C@@H](C)C(=O)N[C@@H](CCC(N)=O)C(=O)N[C@@H](CCC(N)=O)C(=O)N[C@@H](Cc3c[nH]cn3)C(=O)N[C@@H](CC(C)C)C(=O)N[C@@H](CC(C)C)C(=O)N[C@@H](CCC(N)=O)C(=O)N[C@@H](CC(C)C)C(=O)N[C@H](C(=O)N[C@H](C(=O)N[C@@H](Cc3c[nH]c4ccccc34)C(=O)NCC(=O)N[C@H](C(=O)N[C@@H](CCCCN)C(=O)N[C@@H](CCC(N)=O)C(=O)N[C@@H](CC(C)C)C(=O)N[C@@H](CCC(N)=O)C(=O)N[C@@H](C)C(=O)N[C@@H](CCCNC(=N)N)C(=O)N[C@H](C(=O)N[C@@H](CC(C)C)C(=O)O)[C@@H](C)CC)[C@@H](C)CC)C(C)C)[C@@H](C)O)[C@@H](C)CC)C(C)C)[C@@H](C)CC)CS2)C(=O)N[C@@H](CCCCNC(=O)CNC(=O)C2N[C@H](C(=O)N[C@@H](CO)C(=O)NCC(=O)N[C@H](C(=O)N[C@H](C(=O)N[C@@H](CCC(N)=O)C(=O)N[C@@H](CCC(N)=O)C(=O)N[C@@H](CCC(N)=O)C(=O)N[C@@H](CC(N)=O)C(=O)N[C@@H](CC(N)=O)C(=O)N[C@@H](CC(C)C)C(=O)N[C@@H](CC(C)C)C(=O)N[C@@H](CCCNC(=N)N)C(=O)N[C@@H](C)C(=O)N[C@H](C(=O)N[C@@H](CCC(=O)O)C(=O)N[C@@H](C)C(=O)N[C@@H](CCC(N)=O)C(=O)N[C@@H](CCC(N)=O)C(=O)N[C@@H](Cc3c[nH]cn3)C(=O)N[C@@H](CC(C)C)C(=O)N[C@@H](CC(C)C)C(=O)N[C@@H](CCC(N)=O)C(=O)N[C@@H](CC(C)C)C(=O)N[C@H](C(=O)N[C@H](C(=O)N[C@@H](Cc3c[nH]c4ccccc34)C(=O)NCC(=O)N[C@H](C(=O)N[C@@H](CCCCN)C(=O)N[C@@H](CCC(N)=O)C(=O)N[C@@H](CC(C)C)C(=O)N[C@@H](CCC(N)=O)C(=O)N[C@@H](C)C(=O)N[C@@H](CCCNC(=N)N)C(=O)N[C@H](C(=O)N[C@@H](CC(C)C)C(=O)O)[C@@H](C)CC)[C@@H](C)CC)C(C)C)[C@@H](C)O)[C@@H](C)CC)C(C)C)[C@@H](C)CC)CS2)C(=O)N[C@@H](CO)C(=O)N[C@@H](CO)C(=O)N[C@@H](C)C(N)=O)N1)[C@@H](C)CC)C(C)C)[C@@H](C)CC)[C@@H](C)O)C(C)C)C(=O)N[C@@H](CCCCN)C(=O)N[C@@H](CCC(N)=O)C(=O)N[C@@H](CC(C)C)C(=O)N[C@@H](CCC(N)=O)C(=O)N[C@@H](C)C(=O)N[C@@H](CCCNC(=N)N)C(=O)N[C@H](C(=O)N[C@@H](CC(C)C)C(=O)O)[C@@H](C)CC` (stereo partly drawn) [Compound 3α-N36], the values for the IC50 in test [1], in test [2] and in test [3] were 55.4 nM, 39 nM and 7.2 nM, respectively. Moreover, the “percentage of inhibition of cell infection” value in test [4] (6 μM) is recorded as “around 10%”; in test [4] (200 μM), approximately 100%.

“N36 (from UniProt P04578 546-581) (peptide)”: the IC50, HIV-1 mediated cell-cell fusion (syncytium formation), R8 virus in test [5] was more than 1000 nM.

Turning to `CC[C@H](C)[C@H](NC(=O)[C@H](CC(C)C)NC(=O)[C@H](CO)NC(=O)[C@H](Cc1c[nH]cn1)NC(=O)[C@@H](NC(=O)[C@H](CC(C)C)NC(=O)[C@H](CO)NC(=O)[C@@H](NC(=O)[C@H](Cc1ccc(O)cc1)NC(=O)[C@H](CC(N)=O)NC(=O)[C@H](CC(N)=O)NC(=O)[C@@H](NC(=O)[C@@H]1CSC(C(=O)NCCCC[C@H](NC(=O)CCNC(=O)C2N[C@H](C(=O)N[C@H](C(=O)N[C@@H](CC(N)=O)C(=O)N[C@@H](CC(N)=O)C(=O)N[C@@H](Cc3ccc(O)cc3)C(=O)N[C@H](C(=O)N[C@@H](CO)C(=O)N[C@@H](CC(C)C)C(=O)N[C@H](C(=O)N[C@@H](Cc3c[nH]cn3)C(=O)N[C@@H](CO)C(=O)N[C@@H](CC(C)C)C(=O)N[C@H](C(=O)N[C@@H](CCC(=O)O)C(=O)N[C@@H](CCC(=O)O)C(=O)N[C@@H](CO)C(=O)N[C@@H](CCC(N)=O)C(=O)N[C@@H](CC(N)=O)C(=O)N[C@@H](CCC(N)=O)C(=O)N[C@@H](CCC(N)=O)C(=O)N[C@@H](CCC(=O)O)C(=O)N[C@@H](CCCCN)C(=O)N[C@@H](CC(N)=O)C(=O)N[C@@H](CCC(=O)O)C(=O)N[C@@H](CCC(N)=O)C(=O)N[C@@H](CCC(=O)O)C(=O)N[C@@H](CC(C)C)C(=O)N[C@@H](CC(C)C)C(=O)O)[C@@H](C)CC)[C@@H](C)CC)[C@@H](C)O)[C@@H](C)CC)CS2)C(=O)N[C@@H](CCCCNC(=O)CNC(=O)C2N[C@H](C(=O)N[C@H](C(=O)N[C@@H](CC(N)=O)C(=O)N[C@@H](CC(N)=O)C(=O)N[C@@H](Cc3ccc(O)cc3)C(=O)N[C@H](C(=O)N[C@@H](CO)C(=O)N[C@@H](CC(C)C)C(=O)N[C@H](C(=O)N[C@@H](Cc3c[nH]cn3)C(=O)N[C@@H](CO)C(=O)N[C@@H](CC(C)C)C(=O)N[C@H](C(=O)N[C@@H](CCC(=O)O)C(=O)N[C@@H](CCC(=O)O)C(=O)N[C@@H](CO)C(=O)N[C@@H](CCC(N)=O)C(=O)N[C@@H](CC(N)=O)C(=O)N[C@@H](CCC(N)=O)C(=O)N[C@@H](CCC(N)=O)C(=O)N[C@@H](CCC(=O)O)C(=O)N[C@@H](CCCCN)C(=O)N[C@@H](CC(N)=O)C(=O)N[C@@H](CCC(=O)O)C(=O)N[C@@H](CCC(N)=O)C(=O)N[C@@H](CCC(=O)O)C(=O)N[C@@H](CC(C)C)C(=O)N[C@@H](CC(C)C)C(=O)O)[C@@H](C)CC)[C@@H](C)CC)[C@@H](C)O)[C@@H](C)CC)CS2)C(=O)N[C@@H](CO)C(=O)N[C@@H](CO)C(=O)N[C@@H](C)C(N)=O)N1)[C@@H](C)CC)[C@@H](C)O)[C@@H](C)CC)C(=O)N[C@@H](CCC(=O)O)C(=O)N[C@@H](CCC(=O)O)C(=O)N[C@@H](CO)C(=O)N[C@@H](CCC(N)=O)C(=O)N[C@@H](CC(N)=O)C(=O)N[C@@H](CCC(N)=O)C(=O)N[C@@H](CCC(N)=O)C(=O)N[C@@H](CCC(=O)O)C(=O)N[C@@H](CCCCN)C(=O)N[C@@H](CC(N)=O)C(=O)N[C@@H](CCC(=O)O)C(=O)N[C@@H](CCC(N)=O)C(=O)N[C@@H](CCC(=O)O)C(=O)N[C@@H](CC(C)C)C(=O)N[C@@H](CC(C)C)C(=O)O` (stereo partly drawn) [Compound 3α-C27], the IC50 – broadly, the point on the concentration scale where inhibition reaches its midpoint – is 380 nM in test [1], 2.8 nM in test [2] and 0.5 nM in test [3].

Regarding `CC[C@H](C)[C@H](NC(=O)[C@@H]1CSC(C(=O)NCCCC[C@H](NC(=O)CCNC(=O)C2N[C@H](C(=O)N[C@H](C(=O)N[C@@H](CCC(=O)O)C(=O)N[C@@H](CCC(=O)O)C(=O)N[C@@H](CO)C(=O)N[C@@H](CCC(N)=O)C(=O)N[C@@H](CC(N)=O)C(=O)N[C@@H](CCC(N)=O)C(=O)N[C@@H](CCC(N)=O)C(=O)N[C@@H](CCC(=O)O)C(=O)N[C@@H](CCCCN)C(=O)N[C@@H](CC(N)=O)C(=O)N[C@@H](CCC(=O)O)C(=O)N[C@@H](CCC(N)=O)C(=O)N[C@@H](CCC(=O)O)C(=O)N[C@@H](CC(C)C)C(=O)N[C@@H](CC(C)C)C(=O)O)[C@@H](C)CC)CS2)C(=O)N[C@@H](CCCCNC(=O)CNC(=O)C2N[C@H](C(=O)N[C@H](C(=O)N[C@@H](CCC(=O)O)C(=O)N[C@@H](CCC(=O)O)C(=O)N[C@@H](CO)C(=O)N[C@@H](CCC(N)=O)C(=O)N[C@@H](CC(N)=O)C(=O)N[C@@H](CCC(N)=O)C(=O)N[C@@H](CCC(N)=O)C(=O)N[C@@H](CCC(=O)O)C(=O)N[C@@H](CCCCN)C(=O)N[C@@H](CC(N)=O)C(=O)N[C@@H](CCC(=O)O)C(=O)N[C@@H](CCC(N)=O)C(=O)N[C@@H](CCC(=O)O)C(=O)N[C@@H](CC(C)C)C(=O)N[C@@H](CC(C)C)C(=O)O)[C@@H](C)CC)CS2)C(=O)N[C@@H](CO)C(=O)N[C@@H](CO)C(=O)N[C@@H](C)C(N)=O)N1)C(=O)N[C@@H](CCC(=O)O)C(=O)N[C@@H](CCC(=O)O)C(=O)N[C@@H](CO)C(=O)N[C@@H](CCC(N)=O)C(=O)N[C@@H](CC(N)=O)C(=O)N[C@@H](CCC(N)=O)C(=O)N[C@@H](CCC(N)=O)C(=O)N[C@@H](CCC(=O)O)C(=O)N[C@@H](CCCCN)C(=O)N[C@@H](CC(N)=O)C(=O)N[C@@H](CCC(=O)O)C(=O)N[C@@H](CCC(N)=O)C(=O)N[C@@H](CCC(=O)O)C(=O)N[C@@H](CC(C)C)C(=O)N[C@@H](CC(C)C)C(=O)O` (stereo partly drawn) [Compound 3α-C16], the results for the IC50 in test [1], in test [2] and in test [3] were more than 1000 nM, more than 1000 nM and 124 nM, respectively.
